# From PubChem BioAssay (NCI)
#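 Each compound was tested at five concentrations against cells in 96-well plates for 48 hours. GI50: concentration for 50% inhibition of growth. Definition used: TGI = concentration required for complete inhibition of growth.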
# Key:
# Test in all cases: inhibition of tumour cell growth, NCI panel, 48 h
# NCI-H23 lung = test system: NCI-H23 lung
# RPMI-8226 leukemia = test system: RPMI-8226 leukemia
# SW-620 colon = test system: SW-620 colon
# SK-MEL-28 melanoma = test system: SK-MEL-28 melanoma
# UACC-62 melanoma = test system: UACC-62 melanoma
# UO-31 renal = test system: UO-31 renal
# SK-MEL-5 melanoma = test system: SK-MEL-5 melanoma
# SR leukemia = test system: SR leukemia
# COLO 205 colon = test system: COLO 205 colon
# TK-10 renal = test system: TK-10 renal
# SK-MEL-2 melanoma = test system: SK-MEL-2 melanoma
# NCI-H522 lung = test system: NCI-H522 lung
# IGROV1 ovarian = test system: IGROV1 ovarian
# PC-3 prostate = test system: PC-3 prostate
# SNB-19 CNS = test system: SNB-19 CNS
# NCI-H226 lung = test system: NCI-H226 lung
# A549 NSCLC = test system: A549 NSCLC
# MALME-3M melanoma = test system: MALME-3M melanoma
# DU-145 prostate = test system: DU-145 prostate
# MOLT-4 leukemia = test system: MOLT-4 leukemia
# HCT-116 colon = test system: HCT-116 colon
# SNB-75 CNS = test system: SNB-75 CNS
# OVCAR-3 ovarian = test system: OVCAR-3 ovarian
# 786-0 renal = test system: 786-0 renal
# OVCAR-8 ovarian = test system: OVCAR-8 ovarian
# SF-295 CNS = test system: SF-295 CNS
# SN12C renal = test system: SN12C renal
# SK-OV-3 ovarian = test system: SK-OV-3 ovarian
# M14 melanoma = test system: M14 melanoma
# OVCAR-5 ovarian = test system: OVCAR-5 ovarian
# ACHN renal = test system: ACHN renal
# HOP-62 NSCLC = test system: HOP-62 NSCLC
# U251 CNS = test system: U251 CNS
# MDA-MB-231 breast = test system: MDA-MB-231 breast
# MDA-N = test system: MDA-N
# HCT-15 colon = test system: HCT-15 colon
# MDA-MB-435 = test system: MDA-MB-435
# HT29 colon = test system: HT29 colon
# KM12 colon = test system: KM12 colon
# HS 578T breast = test system: HS 578T breast
# MCF7 breast = test system: MCF7 breast
# K-562 leukemia = test system: K-562 leukemia
# HOP-92 NSCLC = test system: HOP-92 NSCLC
# SF-268 CNS = test system: SF-268 CNS
# A498 renal = test system: A498 renal
# LOX IMVI melanoma = test system: LOX IMVI melanoma
# EKVX NSCLC = test system: EKVX NSCLC
# CAKI-1 renal = test system: CAKI-1 renal
# RXF 393 renal = test system: RXF 393 renal
# HCC-2998 colon = test system: HCC-2998 colon
# SF-539 CNS = test system: SF-539 CNS
# NCI/ADR-RES ovarian = test system: NCI/ADR-RES ovarian
# BT-549 breast = test system: BT-549 breast
# HL-60(TB) leukemia = test system: HL-60(TB) leukemia
# NCI-H460 lung = test system: NCI-H460 lung
# OVCAR-4 ovarian = test system: OVCAR-4 ovarian
# UACC-257 melanoma = test system: UACC-257 melanoma
# CCRF-CEM leukemia = test system: CCRF-CEM leukemia
# T-47D breast = test system: T-47D breast
smiles,measurement,setting,value
CN(C)c1ccc(C=C2C(=O)N(c3ccccc3)N(c3ccccc3)C2=O)cc1,TGI,NCI-H23 lung,> 100 µM
same,TGI,RPMI-8226 leukemia,> 100 µM
same,TGI,SW-620 colon,> 100 µM
same,TGI,SK-MEL-28 melanoma,> 100 µM
same,TGI,UACC-62 melanoma,> 100 µM
same,TGI,UO-31 renal,> 100 µM
same,TGI,SK-MEL-5 melanoma,> 100 µM
same,TGI,SR leukemia,> 100 µM
same,TGI,COLO 205 colon,> 100 µM
same,TGI,TK-10 renal,> 100 µM
same,TGI,SK-MEL-2 melanoma,> 100 µM
same,TGI,NCI-H522 lung,> 100 µM
same,TGI,IGROV1 ovarian,> 100 µM
same,TGI,PC-3 prostate,> 100 µM
same,TGI,SNB-19 CNS,> 100 µM
same,TGI,NCI-H226 lung,> 100 µM
same,TGI,A549 NSCLC,> 100 µM
same,TGI,MALME-3M melanoma,> 100 µM
same,TGI,DU-145 prostate,> 100 µM
same,TGI,MOLT-4 leukemia,> 100 µM
same,TGI,HCT-116 colon,> 100 µM
same,TGI,SNB-75 CNS,> 100 µM
same,TGI,OVCAR-3 ovarian,> 100 µM
same,TGI,786-0 renal,> 100 µM
same,TGI,OVCAR-8 ovarian,> 100 µM
same,TGI,SF-295 CNS,> 100 µM
same,TGI,SN12C renal,> 100 µM
same,TGI,SK-OV-3 ovarian,> 100 µM
same,TGI,M14 melanoma,> 100 µM
same,TGI,OVCAR-5 ovarian,> 100 µM
same,TGI,ACHN renal,> 100 µM
same,TGI,HOP-62 NSCLC,> 100 µM
same,TGI,U251 CNS,> 100 µM
same,TGI,MDA-MB-231 breast,> 100 µM
same,TGI,MDA-N,> 100 µM
same,TGI,HCT-15 colon,> 100 µM
same,TGI,MDA-MB-435,> 100 µM
same,TGI,HT29 colon,> 100 µM
same,TGI,KM12 colon,> 100 µM
same,TGI,HS 578T breast,> 100 µM
same,TGI,MCF7 breast,> 100 µM
same,TGI,K-562 leukemia,> 100 µM
same,TGI,HOP-92 NSCLC,65.1 µM
same,TGI,SF-268 CNS,> 100 µM
same,TGI,A498 renal,> 100 µM
same,TGI,LOX IMVI melanoma,> 100 µM
same,TGI,EKVX NSCLC,> 100 µM
O=C(O)c1cn(C2CC2)c2cc(N3CCN(C(=O)Nc4nc(-c5ccccc5)cs4)CC3)c(F)cc2c1=O,GI50,NCI-H23 lung,654 nM
same,TGI,NCI-H23 lung,14 µM
same,GI50,CAKI-1 renal,3.59 µM
same,TGI,CAKI-1 renal,> 100 µM
same,GI50,RPMI-8226 leukemia,826 nM
same,TGI,RPMI-8226 leukemia,7.41 µM
same,GI50,SW-620 colon,3.2 µM
same,TGI,SW-620 colon,> 100 µM
same,GI50,SK-MEL-28 melanoma,705 nM
same,TGI,SK-MEL-28 melanoma,> 100 µM
same,GI50,UACC-62 melanoma,670 nM
same,TGI,UACC-62 melanoma,8.52 µM
same,GI50,UO-31 renal,876 nM
same,TGI,UO-31 renal,> 100 µM
same,GI50,RXF 393 renal,1530 nM
same,TGI,RXF 393 renal,26.3 µM
same,GI50,SK-MEL-5 melanoma,824 nM
same,TGI,SK-MEL-5 melanoma,2.87 µM
same,GI50,SR leukemia,350 nM
same,TGI,SR leukemia,73.8 µM
same,GI50,COLO 205 colon,2840 nM
same,TGI,COLO 205 colon,9.63 µM
same,GI50,TK-10 renal,3.93 µM
same,TGI,TK-10 renal,35.1 µM
same,GI50,SK-MEL-2 melanoma,1850 nM
same,TGI,SK-MEL-2 melanoma,6.42 µM
same,GI50,NCI-H522 lung,1390 nM
same,TGI,NCI-H522 lung,6.26 µM
same,GI50,HCC-2998 colon,2240 nM
same,TGI,HCC-2998 colon,> 100 µM
same,GI50,IGROV1 ovarian,1200 nM
same,TGI,IGROV1 ovarian,> 100 µM
same,GI50,SF-539 CNS,634 nM
same,TGI,SF-539 CNS,> 100 µM
same,GI50,NCI/ADR-RES ovarian,4.82 µM
same,TGI,NCI/ADR-RES ovarian,> 100 µM
same,GI50,PC-3 prostate,1880 nM
same,TGI,PC-3 prostate,> 100 µM
same,GI50,SNB-19 CNS,1120 nM
same,TGI,SNB-19 CNS,> 100 µM
same,GI50,NCI-H226 lung,2960 nM
same,TGI,NCI-H226 lung,57.5 µM
same,GI50,BT-549 breast,473 nM
same,TGI,BT-549 breast,10.4 µM
same,GI50,HL-60(TB) leukemia,1620 nM
same,TGI,HL-60(TB) leukemia,4.41 µM
same,GI50,A549 NSCLC,2150 nM
same,TGI,A549 NSCLC,> 100 µM
same,GI50,MALME-3M melanoma,1530 nM
same,TGI,MALME-3M melanoma,6.52 µM
same,GI50,DU-145 prostate,1050 nM
same,TGI,DU-145 prostate,15.8 µM
same,GI50,MOLT-4 leukemia,1610 nM
same,TGI,MOLT-4 leukemia,11.5 µM
same,GI50,HCT-116 colon,647 nM
same,TGI,HCT-116 colon,> 100 µM
same,GI50,SNB-75 CNS,1220 nM
same,TGI,SNB-75 CNS,19.4 µM
same,GI50,OVCAR-3 ovarian,582 nM
same,TGI,OVCAR-3 ovarian,16.5 µM
same,GI50,786-0 renal,592 nM
same,TGI,786-0 renal,16.9 µM
same,GI50,OVCAR-8 ovarian,1450 nM
same,TGI,OVCAR-8 ovarian,49.2 µM
same,GI50,SF-295 CNS,2130 nM
same,TGI,SF-295 CNS,9.24 µM
same,GI50,SN12C renal,774 nM
same,TGI,SN12C renal,> 100 µM
same,GI50,SK-OV-3 ovarian,1950 nM
same,TGI,SK-OV-3 ovarian,7.38 µM
same,GI50,M14 melanoma,2060 nM
same,TGI,M14 melanoma,> 100 µM
same,GI50,NCI-H460 lung,445 nM
same,TGI,NCI-H460 lung,> 100 µM
same,GI50,OVCAR-5 ovarian,2360 nM
same,TGI,OVCAR-5 ovarian,> 100 µM
same,GI50,ACHN renal,894 nM
same,TGI,ACHN renal,7.54 µM
same,GI50,OVCAR-4 ovarian,2930 nM
same,TGI,OVCAR-4 ovarian,> 100 µM
same,GI50,HOP-62 NSCLC,2670 nM
same,TGI,HOP-62 NSCLC,82.4 µM
same,GI50,U251 CNS,474 nM
same,TGI,U251 CNS,14.1 µM
same,GI50,MDA-MB-231 breast,2300 nM
same,TGI,MDA-MB-231 breast,9.94 µM
same,GI50,HCT-15 colon,2270 nM
same,TGI,HCT-15 colon,> 100 µM
same,GI50,UACC-257 melanoma,2370 nM
same,TGI,UACC-257 melanoma,7.58 µM
same,GI50,CCRF-CEM leukemia,752 nM
same,TGI,CCRF-CEM leukemia,> 100 µM
same,GI50,MDA-MB-435,1160 nM
same,TGI,MDA-MB-435,> 100 µM
same,GI50,HT29 colon,636 nM
same,TGI,HT29 colon,4.67 µM
same,GI50,KM12 colon,485 nM
same,TGI,KM12 colon,23.7 µM
same,GI50,HS 578T breast,861 nM
same,TGI,HS 578T breast,72.1 µM
same,GI50,MCF7 breast,1720 nM
same,TGI,MCF7 breast,> 100 µM
same,GI50,K-562 leukemia,2050 nM
same,TGI,K-562 leukemia,> 100 µM
same,GI50,T-47D breast,1740 nM
same,TGI,T-47D breast,> 100 µM
same,GI50,HOP-92 NSCLC,1130 nM
same,TGI,HOP-92 NSCLC,5.99 µM
same,GI50,SF-268 CNS,474 nM
same,TGI,SF-268 CNS,> 100 µM
same,GI50,A498 renal,1060 nM
same,TGI,A498 renal,7.08 µM
same,GI50,LOX IMVI melanoma,281 nM
same,TGI,LOX IMVI melanoma,1.03 µM
same,GI50,EKVX NSCLC,3.17 µM
same,TGI,EKVX NSCLC,85.2 µM
O=c1[nH]c2ccccc2c(O)c1/C=N/C(=S)NCc1ccccc1,TGI,NCI-H23 lung,> 100 µM
same,TGI,CAKI-1 renal,> 100 µM
same,TGI,SW-620 colon,> 100 µM
same,TGI,SK-MEL-28 melanoma,> 100 µM
same,TGI,UACC-62 melanoma,> 100 µM
same,TGI,UO-31 renal,> 100 µM
same,TGI,SK-MEL-5 melanoma,> 100 µM
same,TGI,COLO 205 colon,> 100 µM
same,TGI,TK-10 renal,> 100 µM
same,TGI,SK-MEL-2 melanoma,> 100 µM
same,TGI,IGROV1 ovarian,> 100 µM
same,TGI,SF-539 CNS,> 100 µM
same,TGI,NCI/ADR-RES ovarian,> 100 µM
same,TGI,PC-3 prostate,> 100 µM
same,TGI,SNB-19 CNS,> 100 µM
same,TGI,NCI-H226 lung,> 100 µM
same,TGI,BT-549 breast,> 100 µM
same,TGI,HL-60(TB) leukemia,> 100 µM
same,TGI,A549 NSCLC,> 100 µM
same,TGI,DU-145 prostate,> 100 µM
same,TGI,MOLT-4 leukemia,> 100 µM
same,TGI,HCT-116 colon,> 100 µM
same,TGI,SNB-75 CNS,> 100 µM
same,TGI,OVCAR-3 ovarian,> 100 µM
same,TGI,786-0 renal,> 100 µM
same,TGI,OVCAR-8 ovarian,> 100 µM
same,TGI,SF-295 CNS,> 100 µM
same,TGI,SN12C renal,> 100 µM
same,TGI,SK-OV-3 ovarian,> 100 µM
same,TGI,M14 melanoma,> 100 µM
same,TGI,OVCAR-5 ovarian,> 100 µM
same,TGI,ACHN renal,> 100 µM
same,TGI,HOP-62 NSCLC,> 100 µM
same,TGI,U251 CNS,> 100 µM
same,TGI,MDA-MB-231 breast,> 100 µM
same,TGI,MDA-N,> 100 µM
same,TGI,UACC-257 melanoma,> 100 µM
same,TGI,MDA-MB-435,> 100 µM
same,TGI,HT29 colon,> 100 µM
same,TGI,KM12 colon,> 100 µM
same,TGI,MCF7 breast,> 100 µM
same,TGI,T-47D breast,> 100 µM
same,TGI,HOP-92 NSCLC,> 100 µM
same,TGI,LOX IMVI melanoma,> 100 µM
same,TGI,EKVX NSCLC,> 100 µM
